The target of one test is T1, RORγ (UniProt P51449).
T1 construct: hRORg-LBD|aa259-518|NP_005051.2; hRORgt|aa1-497|NP_001001523 (RORg, t isoform, 497aa); mRORg-LBD|aa264-516|NP_035411
T1 sequence (P51449 1-518): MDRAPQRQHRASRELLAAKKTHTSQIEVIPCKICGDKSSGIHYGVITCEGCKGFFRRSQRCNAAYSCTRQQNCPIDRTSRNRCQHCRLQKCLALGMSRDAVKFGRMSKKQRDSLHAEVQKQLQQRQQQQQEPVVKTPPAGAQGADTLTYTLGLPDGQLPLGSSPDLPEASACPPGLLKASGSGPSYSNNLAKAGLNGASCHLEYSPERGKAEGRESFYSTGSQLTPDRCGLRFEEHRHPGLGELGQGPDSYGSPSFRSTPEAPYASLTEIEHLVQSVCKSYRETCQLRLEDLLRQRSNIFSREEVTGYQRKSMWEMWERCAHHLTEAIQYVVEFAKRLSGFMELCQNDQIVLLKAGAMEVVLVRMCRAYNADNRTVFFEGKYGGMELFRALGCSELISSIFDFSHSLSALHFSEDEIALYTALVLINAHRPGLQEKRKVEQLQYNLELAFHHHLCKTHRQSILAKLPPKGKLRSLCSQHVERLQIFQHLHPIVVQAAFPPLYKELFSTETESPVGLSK
In kind it is cell-based. The following applies: 293T cells, 16 h; for pIC50 (FF): firefly (FF) luciferase; for pIC50 (REN): renilla normalised (RENnorm) luciferase. The procedure:
Determination of a ligand mediated Gal4 promoter driven transactivation to quantify ligand binding to RORγ was performed as follows: DNA encoding three different RORγ. protein fragments was cloned into vector pCMV-BD (Stratagene). Expression was under control of a CMV promoter and as fusion to the DNA-binding domain of the yeast protein GAL4. Other vectors used were pFR-Luc (Stratagene) as regulated reporter plasmid. pFR-Luc contains a synthetic promoter with five tandem repeats of the yeast GAL4 binding sites that control expression of the Photinus pyralis (American firefly) luciferase gene. In order to improve experimental accuracy the plasmid pRL-CMV was cotransfected. pRL-CMV contains the constitutive CMV promoter, controlling the expression of the Renilla reniformis luciferase.
All Gal4 reporter gene assays were done in 293T cells (DSMZ (German Collection of Microorganisms and Cell Cultures), Braunschweig, Germany, ACC635) grown in Minimum Essential Medium (MEM) with Phenol Red. The medium is supplemented with 10% fetal bovine serum, 0.1 mM nonessential amino acids, 1 mM sodium pyruvate, 1% Glutamax and 100 units Penicilin/[…] per mL at 37° C. in 5% CO2.
For the assay, […] were plated per well in 96 well plates in 100 μL per well, incubated over night at 37° C. in 5% CO2. The following day, medium was discarded and the cells were transiently transfected using 20 μL per well of a OptiMEM—PEI-based transfection-reagent (Sigma-Aldrich, 408727) including the three plasmids described above. About 4 h after addition of the transfection solution, fresh Minimal Essential Medium (MEM, same composition as used for plating cells, but without serum) was added. Then compound stocks, prediluted in MEM (same composition as used for plating cells) were added (final vehicle concentration not exceeding 0.1%).
All experiments were done at least in triplicates.
It is understood that the data illustrated below may have reasonable variation depending on the specific conditions and procedures used by the person conducting the test.

For test [1], the target named is T2, RORγ ligand binding domain (LBD) (Homo sapiens, UniProt P51449).
T2 construct: made in house; host or cells: E. coli BL-21 (BL3), vector pDEST15
T2 sequence (P51449 269-508 limits assumed): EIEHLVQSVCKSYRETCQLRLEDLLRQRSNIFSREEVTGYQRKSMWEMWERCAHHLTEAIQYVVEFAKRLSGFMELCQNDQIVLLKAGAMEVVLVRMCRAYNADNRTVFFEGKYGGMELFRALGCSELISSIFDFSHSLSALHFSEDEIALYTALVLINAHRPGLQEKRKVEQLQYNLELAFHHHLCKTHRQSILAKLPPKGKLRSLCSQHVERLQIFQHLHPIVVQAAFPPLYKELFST
Description: TR-FRET Activity Assay (ligand sensing assay, RORγ-LBD / coactivator peptide interaction). The test is classed as biochemical. The text has this: This method measures the ability of putative ligands to modulate the interaction between the purified bacterial expressed RORγ ligand binding domain (LBD) and synthetic N-terminally biotinylated peptides which are derived from nuclear receptor coactivator proteins such as but not limited to SRC1 (NcoA1), SRC2 (NcoA2, TIF2), SRC3 (NcoA3), PGC1α, PGC1β, CBP, GRIP1, TRAP220, RIP140.
The ligand-binding domain (LBD) of RORγ was expressed as fusion protein with GST in […] cells using the vector pDEST15. Cells were lysed by lysozyme-treatment and sonication, and the fusion proteins purified over glutathione sepharose (Pharmacia) according to the manufacturers instructions. For screening of compounds for their influence on the RORγ-peptide interaction, the LANCE technology (Perkin Elmer) was applied. This method relies on the binding dependent energy transfer from a donor to an acceptor fluorophor attached to the binding partner of interest. For ease of handling and reduction of background from compound fluorescence LANCE technology makes use of generic fluorophore labels and time resolved detection assays were done in a final volume of 25 μL in a 384 well plate, in a Tris-based buffer system (20 mM Tris-HCl pH6.8; 60 mM KCl, 1 mM DTT; 5 mM MgCl2; 35 ng/μL BSA), containing 20-60 ng/well recombinantly expressed RORγ-LBD fused to GST, 200-600 nM N-terminally biotinylated peptide, 200 ng/well Streptavidin-xIAPC conjugate (Prozyme) and 6-10 ng/well Eu W1024-antiGST (Perkin Elmer). DMSO content of the samples was kept at 1%.
After generation of the Tris-based buffer system, the potentially RORγ modulating ligands were diluted. […] The LANCE signal was detected by a Perkin Elmer EnVision™ Multilabel Counter. The results were visualized by plotting the ratio between the emitted light at 665 nm and 615 nm. […] Ligands that promote the complex formation induce a concentration-dependent increase in time-resolved fluorescent signal.
To assess the antagonistic potential of the compounds, IC50 values were determined using a Ligand Sensing Assay based on Time-resolved Fluorescence Energy Transfer (TR-FRET) as described above. The normalised TR-FRET assay values, using the following equation: 1000*665 nm measurement value/615 nm measurement value, were transferred to the program GraphPad Prism to generate graphs and dose response curves using the following equation: […]
This is identical to the “four parameter logistic equation”. The IC50 values are calculated using this equation. […] Is is understood that the data illustrated below may have reasonable variation depending on the specific conditions and procedures used by the person conducting the test.

The structures appear in SMILES notation.

For the compound `C[C@H](NC(=O)c1cc(-c2cc(C(=O)N[C@H]3C[C@H](C(=O)O)C3)n(C)c2CC2CCCCC2)cc(C2(C)CC2)c1)C(F)(F)F` [8/17], at RORγ, the “pIC50 (FF)” value is listed as 7.7 and the “pIC50 (REN)” value is recorded as 7.9. Besides, the concentration for half-maximal inhibition (IC50) in test [1] is 1 µM.

As to `COC(c1c(C)c(C(=O)N[C@H]2C[C@H](C(=O)O)C2)cn1-c1cc(C(C)(C)C)cc(C2(C)CC2)c1)C1CCCCC1` (stereo partly drawn) [Example 14/1], on RORγ, the “pIC50 (FF)” value came out at 6.6 and the “pIC50 (REN)” value was determined as 6.6. In addition, in test [1], the IC50 was 1.58 µM.

Consider `CC(C)(C)c1cc(-c2nc(C(=O)NC3COC3)nn2CC2CCCCC2)cc(C(C)(C)C)c1O` [308/3], for which, on RORγ, the “pIC50 (FF)” value amounted to 6.3 and the “pIC50 (REN)” value worked out at 6.4. In test [1], this compound gave a concentration for half-maximal inhibition (IC50) of 0.794 µM.

Take `CC(C)(C)c1cc(-c2[nH]c(C(=O)N[C@H]3C[C@H](C(=O)O)C3)c(Cl)c2CC2CCCCC2)cc(C2(C)CC2)c1` [Example 18, trans-3-(5-(3-(tert-Butyl)-5-(1-methylcyclopropyl)phenyl)-3-chloro-4-(cyclohexylmethyl)-1H-pyrrole-2-carboxamido)cyclobutanecarboxylic acid]: on RORγ, the “pIC50 (FF)” value worked out at 6.6 and the “pIC50 (REN)” value stood at 6.5. The same compound gave an IC50 in test [1] of 1.26 µM.

As for `C=CCCC(=O)c1cc(-c2cc(C(C)(C)C)cc(C(C)(C)C)c2)n(CC2CCCCC2)c1C` [Example 322, 1-(1-(Cyclohexylmethyl)-5-(3,5-di-tert-butylphenyl)-2-methyl-1H-pyrrol-3-yl)pent-4-en-1-one], at RORγ, the “pIC50 (FF)” value is recorded as less than 4.7 and the “pIC50 (REN)” value is listed as less than 4.7. Also, the IC50 in test [1] was 1.58 µM.

For the compound `CC1(CNC(=O)c2nn(-c3cc(C(C)(C)C)nc(C(C)(C)C)c3)c(CC3CCCCC3)c2Cl)COC1` [Example 105, 4-Chloro-5-(cyclohexylmethyl)-1-(2,6-di-tert-butylpyridin-4-yl)-N-((3-methyloxetan-3-yl)methyl)-1H-pyrazole-3-carboxamide], at RORγ, the “pIC50 (FF)” value is on record as less than 4.7 and the “pIC50 (REN)” value is given as less than 4.7. The IC50 in test [1] is 6.31 µM.

On to `CC(C)(C)c1cc(-c2cc(C(=O)N[C@H]3C[C@H](C(=O)O)C3)[nH]c2CC2CCCCC2)cc(C2(C)CC2)c1` [Example 17/1], for which, at RORγ, the “pIC50 (FF)” value turned out to be 7.0 and the “pIC50 (REN)” value is 7.1. For the same compound, the IC50 in test [1] was 0.794 µM.

As for `Cc1c(C(=O)N[C@H]2C[C@H](C(=O)O)C2)cn(-c2cc(C(C)(C)C)cc(C3(C)CC3)c2)c1[S+]([O-])C1CCCCC1` (stereo partly drawn) [Example 22, trans-3-(1-(3-(tert-Butyl)-5-(1-methylcyclopropyl)phenyl)-5-(cyclohexylsulfinyl)-4-methyl-1H-pyrrole-3-carboxamido)cyclobutanecarboxylic acid], on RORγ, the “pIC50 (FF)” value amounted to 7.1 and the “pIC50 (REN)” value came to 7.1. The compound further showed a concentration for half-maximal inhibition (IC50) in test [1] of 2 µM.

On to `CC(=O)NS(=O)(=O)c1nc(-c2cc(C(C)(C)C)cc(C(C)(C)C)c2)n(CC2CCCCC2)n1` [Example 310, N-((1-(Cyclohexylmethyl)-5-(3,5-di-tert-butylphenyl)-1H-1,2,4-triazol-3-yl)sulfonyl)acetamide], for which, at RORγ, the “pIC50 (FF)” value is given as less than 4.7 and the “pIC50 (REN)” value is listed as less than 4.7. Moreover, the half-maximal inhibitory concentration (IC50) in test [1] is 12.6 µM.

`Cc1c(C(=O)NC2CCOCC2)cn(-c2ccc(S(=O)(=O)NC(C)(C)C)c(C(C)(C)C)c2)c1CC1CCCCC1` [4/2]: at RORγ, the “pIC50 (FF)” value was 7.3 and the “pIC50 (REN)” value stood at 7.5. This compound gave a 50% inhibitory concentration (IC50) in test [1] of 0.631 µM.

Consider `Cn1c(C(N)=O)cc(-c2cc(C(C)(C)C)cc(C(C)(C)C)c2)c1CC1CCCCC1` [Example 304, 5-(Cyclohexylmethyl)-4-(3,5-di-tert-butylphenyl)-1-methyl-1H-pyrrole-2-carboxamide], for which, on RORγ, the “pIC50 (FF)” value is listed as 6.1 and the “pIC50 (REN)” value is reported as 6.1. Further, the IC50 in test [1] is 0.126 µM.

Regarding `CC(C)(O)CNC(=O)c1nc(-c2cc(C(C)(C)C)c(O)c(C(C)(C)C)c2)n(CC2CCCCC2)n1` [308/6], at RORγ, the “pIC50 (FF)” value amounted to 6.5 and the “pIC50 (REN)” value came out at 6.5. The compound further showed a concentration for half-maximal inhibition (IC50) in test [1] of 1 µM.

On to `CC(C)(C)NS(=O)(=O)c1ccc(-c2c(Cl)c(C(=O)N[C@H]3C[C@H](C(=O)O)C3)nn2CC2CCCCC2)cc1C(F)(F)F` [Example 108, trans-3-(5-(4-(N-(tert-Butyl)sulfamoyl)-3-(trifluoromethyl)phenyl)-4-chloro-1-(cyclohexylmethyl)-1H-pyrazole-3-carboxamido)cyclobutanecarboxylic acid], for which, on RORγ, the “pIC50 (FF)” value is on record as 6.4 and the “pIC50 (REN)” value was determined as 6.4. The compound also showed a half-maximal inhibitory concentration (IC50) in test [1] of 0.501 µM.

Turning to `Cn1c(C(=O)N[C@H]2C[C@H](C(=O)O)C2)cc(CC2CCCCC2)c1-c1cc(C(C)(C)C)cc(C2(C)CC2)c1` [Example 19/1], at RORγ, the “pIC50 (FF)” value stood at 7.2 and the “pIC50 (REN)” value was 7.2. In test [1], this compound gave an IC50 of 0.794 µM.

For `Cc1c(C(=O)NC2CCOCC2)cn(-c2cc(Br)cc(C(C)(C)C)c2)c1C=C1CCCCC1` [Example 2, 1-(3-Bromo-5-(tert-butyl)phenyl)-5-(cyclohexylidenemethyl)-4-methyl-N-(tetrahydro-2H-pyran-4-yl)-1H-pyrrole-3-carboxamide], at RORγ, the “pIC50 (FF)” value was 6.4 and the “pIC50 (REN)” value is on record as 6.5. In test [1], this compound gave an IC50 of 1.26 µM.

With `C[C@@H](O)CNC(=O)c1nc(-c2cc(C(C)(C)C)c(O)c(C(C)(C)C)c2)n(CC2CCCCC2)n1` [308/7], on RORγ, the “pIC50 (FF)” value is given as 5.7 and the “pIC50 (REN)” value was 5.9. In test [1], the IC50 is 2.51 µM.

The term IC50 denotes the concentration that inhibits the measured activity by half. Low values mean inhibition by little substance, high ones a need for much substance.

For the origin of these results see patent publication US9458104B2 (priority 2012, dated 2016).
